{
  "source": "paper PMC4467461",
  "about": "“Small-molecule activation of SERCA2a SUMOylation for the treatment of heart failure” (Nature Communications, 2015)",
  "target": "T1, ubiquitin-activating enzyme (Ub E1) (Homo sapiens, UniProt P22314)",
  "T1 sequence (P22314 1-1058)": "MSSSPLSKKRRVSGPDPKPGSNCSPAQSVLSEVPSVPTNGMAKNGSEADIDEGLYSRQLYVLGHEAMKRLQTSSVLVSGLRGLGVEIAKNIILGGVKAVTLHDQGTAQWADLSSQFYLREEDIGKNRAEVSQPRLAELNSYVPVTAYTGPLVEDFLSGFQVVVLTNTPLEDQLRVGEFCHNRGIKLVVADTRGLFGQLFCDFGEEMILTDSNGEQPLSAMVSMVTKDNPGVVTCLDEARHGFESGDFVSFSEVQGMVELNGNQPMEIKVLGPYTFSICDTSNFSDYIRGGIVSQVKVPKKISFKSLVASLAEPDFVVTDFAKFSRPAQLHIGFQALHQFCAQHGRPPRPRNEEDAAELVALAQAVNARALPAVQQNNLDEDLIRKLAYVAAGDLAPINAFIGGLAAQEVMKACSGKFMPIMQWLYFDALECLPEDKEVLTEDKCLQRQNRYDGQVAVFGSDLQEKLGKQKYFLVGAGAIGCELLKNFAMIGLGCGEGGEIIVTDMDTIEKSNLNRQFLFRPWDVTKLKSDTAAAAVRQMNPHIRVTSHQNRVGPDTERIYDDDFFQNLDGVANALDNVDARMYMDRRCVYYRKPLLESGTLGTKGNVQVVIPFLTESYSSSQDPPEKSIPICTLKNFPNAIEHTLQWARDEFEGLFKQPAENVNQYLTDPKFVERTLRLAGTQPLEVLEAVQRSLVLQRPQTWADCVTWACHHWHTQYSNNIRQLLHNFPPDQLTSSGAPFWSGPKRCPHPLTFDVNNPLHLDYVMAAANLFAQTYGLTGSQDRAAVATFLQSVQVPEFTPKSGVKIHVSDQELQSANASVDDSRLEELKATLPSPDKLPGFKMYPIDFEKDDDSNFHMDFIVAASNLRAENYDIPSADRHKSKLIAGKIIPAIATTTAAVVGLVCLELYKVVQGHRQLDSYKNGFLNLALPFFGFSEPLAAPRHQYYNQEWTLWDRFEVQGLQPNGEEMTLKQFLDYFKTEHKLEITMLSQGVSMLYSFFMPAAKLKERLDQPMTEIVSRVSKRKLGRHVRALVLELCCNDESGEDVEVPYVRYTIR",
  "assay": "Ubiquitin-activating E1 enzyme activity (ATP hydrolysis and in vitro conjugation assays)",
  "format": "biochemical",
  "conditions": "at concentrations up to 100 μM",
  "method": "Biochemical activity of SUMO-specific E1 enzymes was examined by ATPase assay and in-vitro gel-shifting assays. ATP hydrolysis activity of E1 enzymes was measured by using pyrophosphate assay kit (Abcam Inc.). E1 (0.05 μM), 0.25 μM E2, 12.5 μM SUMO-1 and 1 mM ATP with N106 or DMSO were used for the assays. The E1-thioester formation was analysed in reaction mixtures containing 0.05 μM E1, 12.5 μM SUMO-1 and 1 mM ATP with N106 or DMSO. The E1-dependent E2-SUMO-1 thioester formation was assessed using reaction containing 0.05 μM E1, 0.25 μM E2, 12.5 μM SUMO-1 and 1 mM ATP with N106 or DMSO. Assays were incubated at 37 °C for 30 min and were mixed with non-reducing sample buffer, and analysed in non-reducing condition. Western blotting using antibodies against SAE2 and Ubc9 detected the SUMO conjugations. […]\nSupplementary Figure 5. […] Ubiquitin activating E1 enzyme activity was determined by ATP hydrolysis and in vitro conjugation assays. […] Inorganic pyrophosphate resulting from ATP hydrolysis in E1-catalazed ubiquitin activity was quantified with the use of a fluorogenic pyrophosphate assay kit. […] Thioester bond formation between ubiquitin specific E1 enzyme and ubiquitin were detected by Western blot analysis. […] E1-dependent thioester bond formation between E2 and ubiquitin was detected by Western blotting with anti-ubiquitin antibody. […]",
  "data": [
    {"smiles": "COc1ccc(-c2nnc(Nc3nc4c(OC)cccc4s3)o2)cc1", "note": "[Compound N106, N-(4-methoxybenzo[d]thiazol-2-yl)-5-(4-methoxyphenyl)-1,3,4-oxadiazol-2-amine]", "values": [
      {"measurement": "in-vitro activity of Ub E1 (ubiquitin activation, conjugation of ubiquitin to Ub E1, Ub E1-dependent conjugation to E2 cdc32)", "value": "did not significantly stimulate"}
    ]}
  ]
}
